The record followed here is PubChem BioAssay (NCI).

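The compound was tested at five concentrations on cells cultured in 96-well plates, with a 48-hour exposure period. Definition used: TGI = concentration required for complete inhibition of growth.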

Test systems include 786-0 renal; MDA-N; DMS 114 small cell lung; DMS 273 small cell lung; HOP-18 NSCLC; RXF-631 renal; P388 leukemia; P388/ADR leukemia; SN12K1 renal; LXFL 529 NSCLC.
Common to all, as to assay: NCI tumour cell line growth inhibition, 48 h

As for `CC1(C(=O)O)CCCC1C(=O)O` (centres undefined), the TGI in the test with 786-0 renal and with MDA-N was over 100 µM each time.

For `COc1c(Br)cc(CC(N)=O)c(O)c1Br`, the TGI in the test on DMS 114 small cell lung, in the test with DMS 273 small cell lung, in the test on HOP-18 NSCLC and with RXF-631 renal was over 100 µM each time.

`OC1(c2ccc(Cl)cc2)c2ccc3ccccc3c2C2=N[C@H]3CCCC[C@@H]3N21` (some centres undefined) showed a TGI with MDA-N of over 100 µM.

In turn, `CCC(C(=O)c1ccc(OC)c(OC)c1)N(C(=O)C(F)(F)F)C(C)c1ccccc1` (centres undefined) displayed a TGI in the test on MDA-N of over 100 µM.

`NC(N)=Nc1ncccc1[N+](=O)[O-]`: the TGI is 30.5 µM in the test on DMS 114 small cell lung; over 100 µM in the test on DMS 273 small cell lung; over 100 µM in the test on HOP-18 NSCLC; over 100 µM with P388 leukemia; over 100 µM with P388/ADR leukemia; over 100 µM in the test with SN12K1 renal.

As to `COc1cc(/C=C\C(=O)O)ccc1OCc1ccccc1`, the TGI in the test on 786-0 renal and in the test on MDA-N was over 100 µM in each case.

As for `O=c1oc2cc(O)ccc2c(O)c1C(c1ccc(C(c2c(O)c3ccc(O)cc3oc2=O)c2c(O)c3ccc(O)cc3oc2=O)cc1)c1c(O)c2ccc(O)cc2oc1=O`, in the test on MDA-N, the TGI was over 100 µM.

Turning to `O=C(CC1=NCCN1)c1ccccc1`, the TGI with DMS 114 small cell lung, in the test with DMS 273 small cell lung, in the test on HOP-18 NSCLC, in the test on P388 leukemia, with P388/ADR leukemia and with SN12K1 renal was over 750 µM each time.

Consider `O=C1C(Cl)N(c2ccccc2[N+](=O)[O-])C1c1c[nH]c2ccccc12` (centres undefined), for which the TGI in the test on DMS 114 small cell lung and with LXFL 529 NSCLC was over 100 µM throughout.

Consider `O=C(Nc1cccc(O)c1)C(=O)C(C(=O)c1ccccc1F)C1OC(=O)c2ccccc21` (centres undefined), for which the TGI was found to be 40.7 µM in the test on DMS 114 small cell lung, 98.1 µM in the test on DMS 273 small cell lung, 88.8 µM with LXFL 529 NSCLC and 93.5 µM with RXF-631 renal.
